Patent publication US20100184699A1, “Peptide Derived From Prostate-Related Protein As Cancer Vaccine Candidate For Prostate Cancer Patient Who Is Positive For Hla-A3 Super-Type Allele Molecule” (priority 2005, published 2010)
Values joined by “and” are separate entries in the source; they are usually repeats but may differ in a detail not shown here. Equal values may be shown once. Read-outs that look alike come from different tables or passages of the source.

Columns and labels:
[1] = tested on: peptide-specific IgG in plasma of prostate cancer patients and healthy donors; assay: Detection of peptide-specific IgG in plasma by ELISA; format: binding, human; details: for IgG reactive to peptide in plasma: 1:100-diluted plasma; for frequency of detection of peptide-reactive IgG: plasma of prostate cancer patients, compared within PSA, PAP or PSMA peptides
[2] = tested on: C1R-A11, -A31 or -A33 cells pulsed with corresponding peptide; assay: Induction of peptide-specific CTLs from PBMCs (IFN-γ ELISA); format: cell-based, human; details: for IFN-γ production, HIV peptide background subtracted: day 15, significant values only
[3] = Prostate cancer patient 10, A11
[4] = Prostate cancer patient 12, A11
[5] = Prostate cancer patient 13, A11
[6] = Prostate cancer patient 14, A33
[7] = Prostate cancer patient 17, A33
[8] = Prostate cancer patient 18, A33
[9] = Prostate cancer patient 19, A33
[10] = Prostate cancer patient 20, A33

Sequence | IgG reactive to peptide in plasma ([1]; Healthy donor 9, A11) | IgG reactive to peptide in plasma, Total (positive/tested) ([1]; Healthy donors) | IgG reactive to peptide in plasma ([1]; Prostate cancer patient 4, A31) | IgG reactive to peptide in plasma ([1]; Prostate cancer patient 5, A31) | IgG reactive to peptide in plasma ([1]; Prostate cancer patient 6, A31) | IgG reactive to peptide in plasma ([1]; Prostate cancer patient 8, A11) | IgG reactive to peptide in plasma ([1]; Prostate cancer patient 9, A11) | IgG reactive to peptide in plasma [1, 3] | IgG reactive to peptide in plasma [1, 4] | IgG reactive to peptide in plasma [1, 5] | IgG reactive to peptide in plasma [1, 6] | IgG reactive to peptide in plasma [1, 7] | IgG reactive to peptide in plasma [1, 8] | IgG reactive to peptide in plasma [1, 9] | IgG reactive to peptide in plasma [1, 10] | IgG reactive to peptide in plasma, Total (positive/tested) ([1]; Prostate cancer patients) | frequency of detection of peptide-reactive IgG [1] | Total (positive / tested) [2] | also measured
EIASKFSER [PSMA 641-649] | + (IgG reactive to a corresponding peptide was judged to be positive when a difference of the optical density (OD) in a 1:100-diluted plasma was more than 100) | 1/9 | + (IgG reactive to a corresponding peptide was judged to be positive when a difference of the optical density (OD) in a 1:100-diluted plasma was more than 100) | + (IgG reactive to a corresponding peptide was judged to be positive when a difference of the optical density (OD) in a 1:100-diluted plasma was more than 100) | + (IgG reactive to a corresponding peptide was judged to be positive when a difference of the optical density (OD) in a 1:100-diluted plasma was more than 100) | + (IgG reactive to a corresponding peptide was judged to be positive when a difference of the optical density (OD) in a 1:100-diluted plasma was more than 100) | + (IgG reactive to a corresponding peptide was judged to be positive when a difference of the optical density (OD) in a 1:100-diluted plasma was more than 100) | + (IgG reactive to a corresponding peptide was judged to be positive when a difference of the optical density (OD) in a 1:100-diluted plasma was more than 100) | + (IgG reactive to a corresponding peptide was judged to be positive when a difference of the optical density (OD) in a 1:100-diluted plasma was more than 100) | + (IgG reactive to a corresponding peptide was judged to be positive when a difference of the optical density (OD) in a 1:100-diluted plasma was more than 100) | + (IgG reactive to a corresponding peptide was judged to be positive when a difference of the optical density (OD) in a 1:100-diluted plasma was more than 100) | + (IgG reactive to a corresponding peptide was judged to be positive when a difference of the optical density (OD) in a 1:100-diluted plasma was more than 100) | + (IgG reactive to a corresponding peptide was judged to be positive when a difference of the optical density (OD) in a 1:100-diluted plasma was more than 100) | + (IgG reactive to a corresponding peptide was judged to be positive when a difference of the optical density (OD) in a 1:100-diluted plasma was more than 100) | + (IgG reactive to a corresponding peptide was judged to be positive when a difference of the optical density (OD) in a 1:100-diluted plasma was more than 100) | 13/20 | more frequently | 1/13 and 2/9 | 
GTLKKEGWR (PSMA 403-411) [PSMA-derived peptide] | + (IgG reactive to a corresponding peptide was judged to be positive when a difference of the optical density (OD) in a 1:100-diluted plasma was more than 100) | 2/9 | + (IgG reactive to a corresponding peptide was judged to be positive when a difference of the optical density (OD) in a 1:100-diluted plasma was more than 100) | + (IgG reactive to a corresponding peptide was judged to be positive when a difference of the optical density (OD) in a 1:100-diluted plasma was more than 100) | + (IgG reactive to a corresponding peptide was judged to be positive when a difference of the optical density (OD) in a 1:100-diluted plasma was more than 100) | + (IgG reactive to a corresponding peptide was judged to be positive when a difference of the optical density (OD) in a 1:100-diluted plasma was more than 100) | + (IgG reactive to a corresponding peptide was judged to be positive when a difference of the optical density (OD) in a 1:100-diluted plasma was more than 100) | + (IgG reactive to a corresponding peptide was judged to be positive when a difference of the optical density (OD) in a 1:100-diluted plasma was more than 100) | + (IgG reactive to a corresponding peptide was judged to be positive when a difference of the optical density (OD) in a 1:100-diluted plasma was more than 100) | + (IgG reactive to a corresponding peptide was judged to be positive when a difference of the optical density (OD) in a 1:100-diluted plasma was more than 100) | + (IgG reactive to a corresponding peptide was judged to be positive when a difference of the optical density (OD) in a 1:100-diluted plasma was more than 100) | + (IgG reactive to a corresponding peptide was judged to be positive when a difference of the optical density (OD) in a 1:100-diluted plasma was more than 100) | + (IgG reactive to a corresponding peptide was judged to be positive when a difference of the optical density (OD) in a 1:100-diluted plasma was more than 100) | + (IgG reactive to a corresponding peptide was judged to be positive when a difference of the optical density (OD) in a 1:100-diluted plasma was more than 100) | + (IgG reactive to a corresponding peptide was judged to be positive when a difference of the optical density (OD) in a 1:100-diluted plasma was more than 100) | 19/20 | more frequently | 1/13 and 3/9 | IgG reactive to peptide in plasma ([1]; Healthy donor 3, A31): + (IgG reactive to a corresponding peptide was judged to be positive when a difference of the optical density (OD) in a 1:100-diluted plasma was more than 100); IgG reactive to peptide in plasma ([1]; Prostate cancer patient 1, A31): + (IgG reactive to a corresponding peptide was judged to be positive when a difference of the optical density (OD) in a 1:100-diluted plasma was more than 100); IgG reactive to peptide in plasma ([1]; Prostate cancer patient 2, A31): + (IgG reactive to a corresponding peptide was judged to be positive when a difference of the optical density (OD) in a 1:100-diluted plasma was more than 100); IgG reactive to peptide in plasma ([1]; Prostate cancer patient 3, A31): + (IgG reactive to a corresponding peptide was judged to be positive when a difference of the optical density (OD) in a 1:100-diluted plasma was more than 100); IgG reactive to peptide in plasma ([1]; Prostate cancer patient 7, A11): + (IgG reactive to a corresponding peptide was judged to be positive when a difference of the optical density (OD) in a 1:100-diluted plasma was more than 100); IgG reactive to peptide in plasma ([1]; Prostate cancer patient 15, A33): + (IgG reactive to a corresponding peptide was judged to be positive when a difference of the optical density (OD) in a 1:100-diluted plasma was more than 100); IgG reactive to peptide in plasma ([1]; Prostate cancer patient 16, A33): + (IgG reactive to a corresponding peptide was judged to be positive when a difference of the optical density (OD) in a 1:100-diluted plasma was more than 100)
KIVIARYGK (PSMA 199-207) [PSMA-derived peptide] |  | 0/9 |  |  |  |  |  |  |  |  |  |  |  |  | + (IgG reactive to a corresponding peptide was judged to be positive when a difference of the optical density (OD) in a 1:100-diluted plasma was more than 100) | 1/20 | less frequently | 0/13 and 4/9 | 
LFLLFFWLDR (PAP 19-28) [PAP-derived peptide] |  |  |  |  |  |  |  |  |  |  |  |  |  |  |  |  | less frequently | 1/13 and 2/9 | 
LLGPGRPYR (TRP2-derived peptide) [reference compound] |  |  |  |  |  |  |  |  |  |  |  |  |  |  |  |  |  |  | IFN-γ production, HIV peptide background subtracted ([2]; healthy donor 1, A31): 143 pg/mL; IFN-γ production, HIV peptide background subtracted ([2]; healthy donor 4, A31): 180 pg/mL; IFN-γ production, HIV peptide background subtracted ([2]; healthy donor 6, A33): 90 pg/mL; IFN-γ production, HIV peptide background subtracted ([2]; healthy donor 9, A11): 182 pg/mL; IFN-γ production, HIV peptide background subtracted ([2]; healthy donor 10, A11): 207 pg/mL; IFN-γ production, HIV peptide background subtracted ([2]; healthy donor 14, A11): 94 pg/mL; Total (positive / tested) ([2]; healthy donors): 6/9; IFN-γ production, HIV peptide background subtracted ([2]; prostate cancer patient 9, A11): 155 pg/mL; IFN-γ production, HIV peptide background subtracted ([2]; prostate cancer patient 15, A33): 292 pg/mL; IFN-γ production, HIV peptide background subtracted ([2]; prostate cancer patient 17, A33): 1093 pg/mL; IFN-γ production, HIV peptide background subtracted ([2]; prostate cancer patient 19, A33): 115 pg/mL; IFN-γ production, HIV peptide background subtracted ([2]; prostate cancer patient 22, A31): 115 pg/mL; Total (positive / tested) ([2]; prostate cancer patients): 5/13
NVKNLYEKVK (Flu-derived peptide) [reference compound] |  |  |  |  |  |  |  |  |  |  |  |  |  |  |  |  |  | 8/13 and 5/9 | 
